Test results as given in publication PMC9436958, “The synthesis of novel thioderivative chalcones and their influence on NF-κB, STAT3 and NRF2 signaling pathways in colorectal cancer cells” (Scientific Reports, 2022).

Experiments:
Format in all cases: cell-based
[1] = tested on: NF-κB p65; assay: Western blot, NF-κB p65 protein level; settings: 4 at 1 μM, vs control
Description: (§1) Cytosolic and nuclear extracts were prepared using a Nuclear/Cytosol Fractionation Kit (BioVision Research, USA). Cytosolic extracts (for NF-κBp65, NF-κBp50, COX-2, iNOS, STAT3, c-Myc, Bcl-xl, Nrf2, SOD, GSTP, EGFR, Akt, p-Akt, Keap1, IKKα/β and β-actin) or nuclear extracts (for NF-κBp65, NF-κBp50, STAT3, p-STAT3, Nrf2, p-Nrf2 and lamin) were separated on 7.5%, 10% or 12% SDS–PAGE slab gels. Then, the proteins were transferred to a nitrocellulose Immobilon-P membrane. After blocking for 2 h with 10% skimmed milk, proteins were incubated with primary antibodies against NF-κBp65, NF-κBp50, COX-2, iNOS, STAT3, p-STAT3, c-Myc, Bcl-xl, Nrf2, p-Nrf2, SOD, GSTP, EGFR, Akt, p-Akt, Keap1, IKKα/β, β-actin, and lamin. Alkaline phosphatase (AP)-labeled anti-rabbit IgG, anti-goat IgG, and anti-mouse IgG secondary antibodies (Bio-Rad Laboratories, USA), as well as horseradish peroxidase (HRP)-conjugated anti-mouse IgG (Boster Bio, USA) secondary antibodies were used in the staining reaction. Bands were visualized by the AP Conjugate Substrate Kit NBT/BCIP or the chemiluminescent HRP substrate of the Clarity ECL Kit (Bio–Rad Laboratories, USA). The amount of immunoreactive product in each lane was determined using a ChemiDoc Imaging System (Bio–Rad Laboratories, USA). Values were calculated as relative absorbance units (RQ) per mg of protein and expressed as a percentage of the control.

[2] = tested on: NF-κB p65; assay: Transcription factor ELISA, NF-κB p65 binding to DNA; settings: DLD-1 cells (context); 1, 4 at 1 μM; 2, 8 at 5 μM; vs control
Description: To estimate NF-ΚB (p50 and p65 subunits) STAT3 and Nrf2 activation, enzymatic immunoassays with the Transcription Factor ELISA Kit (TransAM™NF-κB, TransAM™STAT3/TransAM™Nrf2, Active Motif, Carlsbad CA, USA) were used following the manufacturer’s protocol. Briefly, proper consensus-site double-strand oligonucleotides (NF-κB—5′-GGGACTTTCC-3′; STAT3-5’—TTCCCGGAA-3’; Nrf2-5ʹ—[…]-3ʹ) were immobilized on an ELISA plate and incubated for one hour with the nuclear extracts. The activated subunits bound to DNA were recognized with a specific primary antibody and detected with an HRP-conjugated secondary antibody. The number of subunits was determined by spectrophotometry at λ = 450 nm. The number of p50, and p65 subunits, STAT3, as well as the amount of Nrf2 contained in the DNA-binding complex, corresponded to the activated NF-κB, STAT3, or Nrf2 transcription factors.

[3] = tested on: COX-2; assay: COX-2 expression (qRT-PCR mRNA, Western blot protein); settings: 4 at 1 μM
Description: as §1
(§2) Total RNA from cells was isolated with the GeneMatrix Universal DNA/RNA/Protein Purification Kit (EurX, Poland). For the qRT-PCR analyses, the Maxima SYBR Green I/ROX qPCR Master Mix (2×) (Thermo Fisher Scientific, USA) and the thermal cycler LightCycler (Roche, Germany) were used. The protocol started with 5 min of enzyme activation at 95 °C, followed by 40–50 cycles at 95 °C for 15 s, 56 °C for 20 s, 72 °C for 40 s, and final elongation at 72 °C for 5 min. Melting curve analysis was used for amplicon verification. The expression levels of TATA-box-binding protein (TBP) and porphobilinogen deaminase (PBGD) were used to normalize the data. The Pfaffl comparative method was used to calculate fold change. Primers were designed using Beacon Designer software (the sequences of primers used to analyze genes are listed in Table 2 of the supplementary materials).

[4] = tested on: STAT3; assay: Western blot, STAT3 protein level; settings: 4 at 1 μM
Description: as §1

[5] = tested on: DLD-1 cells; assay: Wound healing assay (cell migration); settings: 24 h, 4 at standard concentration (1 μM), BAY 11-7082 5 µM
Description: Cell migration was assessed by the wound healing assay. DLD-1 cells were seeded into 24-well plates (5 × 10^5 cells per well) and were grown overnight to reach confluency. A scratch was performed using a 10 μl tip, wells were rinsed twice with PBS buffer to remove detached cells, and fresh medium with reduced FBS concentration (0.5%) containing the tested compounds was added. Subsequently, representative microscopic photographs of scratch areas were taken by JuLI FL microscope (NanoEntek, South Korea) direct after the addition of compounds and after 24 h. Area covered by cells (%) was assessed using JuLI FL software and the difference in the coverage of the growth area by DLD-1 cells between 0 and 24 h time points was calculated for each well. The experiment was repeated three times. The relative effect of the tested compounds on cell migration was calculated by comparing the difference in cell coverage area between compound-treated cells and DMSO-vehicle control (tested compound [area 24 h − area 0 h] / DMSO-vehicle control [area 24 h − area 0 h]).

[6] = tested on: NF-κB p65; assay: qRT-PCR, NF-κB p65 mRNA; settings: DLD-1 cells; 5 μM
Description: as §2

[7] = tested on: p-Nrf2; assay: Western blot, p-Nrf2 protein in nuclear fraction; settings: HCT116 line; 5 μM
Description: as §1

[8] = tested on: Nrf2; assay: qRT-PCR, Nrf2 mRNA; settings: 5 at 5 μM
Description: as §2

[9] = tested on: SOD; assay: SOD expression (qRT-PCR mRNA, Western blot protein); settings: HCT116 cells; 5 μM
Description: as §1
as §2, with “Primers were designed using Beacon Designer software (the sequences of primers used to analyze genes are listed in Table 2 of the supplementary materials).” left out

[10] = tested on: GSTP; assay: GSTP expression (qRT-PCR mRNA, Western blot protein); settings: DLD-1 cells; 5 at 5 μM
Description: as §1, with “control. […]” for “control.”

[11] = tested on: DLD-1 cells; assay: Cell cycle distribution, PI staining, flow cytometry, DLD-1; settings: 48 h, BAY 11-7082 5 µM, 5 in higher (doubled) concentration
Description: The analysis of the cell cycle distribution was performed by propidium iodide (PI) staining. The addition of RNase A improved the specificity of PI binding to DNA. The Muse Cell Cycle Kit (Luminex, USA) and flow cytometric detection were performed with the Muse Cell Analyzer (Merck, Germany), according to the manufacturer’s protocol. Briefly, cells were seeded (2 × 10^5 cells per well) in 6-well plates and on the following day the analyzed compounds were added. Topotecan (Sigma-Aldrich, USA) was used as a positive control of cell cycle arrest. After 48 h cells were collected by trypsinization, fixed in cold 70% ethanol and stored at –20 °C. Then, fixed cells were collected and stained with PI, subjected to 30 min incubation at room temperature in the dark and analyzed by flow cytometry. Three independent experiments were performed. Data were analyzed by Muse 1.5 Analysis Software (Merck, Germany).

Row | Structure (SMILES) | decrease of p65 level in the nuclear fraction ([1]; DLD-1 cells) | decrease of p65 level in the nuclear fraction ([1]; HCT116 cells) | reduction of the binding of the p65 subunit to DNA [2] | COX-2 protein level ([3]; DLD-1 cells, cytosolic fraction) | COX-2 transcription ([3]; DLD-1 cells, 3, 6 at 5 μM) | COX-2 expression, protein level ([3]; HCT116 cells, 2 at 5 μM) | COX-2 expression, transcript level ([3]; HCT116 cells, 2 at 5 μM) | decrease in the nuclear level of STAT3 protein ([4]; DLD-1 cells, 2 at 5 μM) | decrease in the nuclear level of STAT3 protein ([4]; HCT116 cells) | reduction of cell migration rate (wound healing) vs DMSO-treated cells [5] | inhibitory effect on p65 subunit transcription [6] | increase in the nuclear level of p-Nrf2 [7] | increase in Nrf2 transcription ([8]; DLD-1 line) | increase in Nrf2 transcription ([8]; HCT116 line) | levels of SOD mRNA and protein [9] | GSTP expression and protein levels [10] | cell cycle distribution (in words) [11]
1 | COc1cc(C(=O)/C=C/c2cccc(SC)c2)cc(Br)c1OC [chalcone 4] | 22% | 26% | 21% | reduced COX-2 protein levels | statistically significant reduction | reduction of COX-2 expression | reduction of COX-2 expression | 21% | 22% | approximately 15% |  |  |  |  |  |  | 
2 | COc1cc(/C=C/C(=O)c2cc(Br)c(SC)c(OC)c2)ccc1SC [chalcone 5] |  |  |  |  |  |  |  |  |  |  | most potent inhibitory effect | 85% | 77% | 45% | increased levels of SOD mRNA and protein | significantly increased GSTP expression and protein levels | slightly enriching S phase
